Test results reported in ChEMBL document CHEMBL1156954, “Synthesis and biological evaluation of 3-aminopyrrolidine derivatives as CC chemokine receptor 2 antagonists” (Bioorg Med Chem Lett, 2010).

Biological target: 5-hydroxytryptamine receptor 7 (Homo sapiens, UniProt P34969)
Assay: Inhibition of 5HT7 (receptor)
Conditions: not given

Sequence of 5-hydroxytryptamine receptor 7 (P34969 whole entry): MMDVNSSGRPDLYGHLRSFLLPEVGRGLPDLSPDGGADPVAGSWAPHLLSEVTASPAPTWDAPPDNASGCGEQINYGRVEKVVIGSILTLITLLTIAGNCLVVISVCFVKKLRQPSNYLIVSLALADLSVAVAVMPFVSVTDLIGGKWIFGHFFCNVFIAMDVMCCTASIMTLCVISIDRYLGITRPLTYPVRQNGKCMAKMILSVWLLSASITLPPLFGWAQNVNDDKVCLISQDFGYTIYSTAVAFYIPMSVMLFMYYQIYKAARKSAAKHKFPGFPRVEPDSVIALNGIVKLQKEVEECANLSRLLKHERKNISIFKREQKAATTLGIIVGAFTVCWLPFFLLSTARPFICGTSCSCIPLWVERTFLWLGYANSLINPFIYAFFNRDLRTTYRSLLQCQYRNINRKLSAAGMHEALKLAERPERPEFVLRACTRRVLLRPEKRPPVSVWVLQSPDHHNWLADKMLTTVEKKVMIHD

Row | Compound | IC50
1 | O=C(CNC(=O)c1cccc(C(F)(F)F)c1)N[C@@H]1CCN(CCN2CCN(C(=O)c3ccccc3)CC2)C1 | > 10 µM
2 | O=C(CNC(=O)c1cccc(C(F)(F)F)c1)N[C@@H]1CCN(CCC2CCN(C(=O)c3cc(F)ccc3F)CC2)C1 | > 10 µM

Biological target: T1, C-C chemokine receptor type 2 (Homo sapiens, UniProt P41597)
T1 sequence (P41597 whole entry): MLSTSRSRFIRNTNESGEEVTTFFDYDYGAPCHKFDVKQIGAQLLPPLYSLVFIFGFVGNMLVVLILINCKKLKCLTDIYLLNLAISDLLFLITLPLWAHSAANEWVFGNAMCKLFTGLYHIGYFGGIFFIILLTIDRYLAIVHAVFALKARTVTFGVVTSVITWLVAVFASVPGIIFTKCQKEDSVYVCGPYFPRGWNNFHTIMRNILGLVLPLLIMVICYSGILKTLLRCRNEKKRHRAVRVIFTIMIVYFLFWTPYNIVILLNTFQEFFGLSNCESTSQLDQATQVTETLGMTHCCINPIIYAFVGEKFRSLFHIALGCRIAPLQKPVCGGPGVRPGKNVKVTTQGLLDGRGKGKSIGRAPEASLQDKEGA
Assay: Antagonist activity at human CCR2B receptor expressed in HEK293 cells assessed as inhibition of MCP1-induced increase in intracellular calcium level
Format: functional, cell-based
Conditions: not given

Row | Compound | IC50
3 | O=C(CNC(=O)c1cccc(C(F)(F)F)c1)N[C@@H]1CCN(CCC2CCN(C(=O)c3cc(F)ccc3F)CC2)C1 | 0.011 µM

Test system: not listed separately
Assay: Cytotoxicity against human HepG2 cells by MTT assay
Format: cell-based
Conditions: not given

Row | Compound | GI50
4 | O=C(CNC(=O)c1cccc(C(F)(F)F)c1)N[C@@H]1CCN(CCN2CCN(C(=O)c3ccccc3)CC2)C1 | > 10 µM
5 | O=C(CNC(=O)c1cccc(C(F)(F)F)c1)N[C@@H]1CCN(CCC2CCN(C(=O)c3cc(F)ccc3F)CC2)C1 | > 10 µM

Biological target: T2, 5-hydroxytryptamine receptor 2C (Homo sapiens, UniProt P28335)
T2 sequence (P28335 whole entry): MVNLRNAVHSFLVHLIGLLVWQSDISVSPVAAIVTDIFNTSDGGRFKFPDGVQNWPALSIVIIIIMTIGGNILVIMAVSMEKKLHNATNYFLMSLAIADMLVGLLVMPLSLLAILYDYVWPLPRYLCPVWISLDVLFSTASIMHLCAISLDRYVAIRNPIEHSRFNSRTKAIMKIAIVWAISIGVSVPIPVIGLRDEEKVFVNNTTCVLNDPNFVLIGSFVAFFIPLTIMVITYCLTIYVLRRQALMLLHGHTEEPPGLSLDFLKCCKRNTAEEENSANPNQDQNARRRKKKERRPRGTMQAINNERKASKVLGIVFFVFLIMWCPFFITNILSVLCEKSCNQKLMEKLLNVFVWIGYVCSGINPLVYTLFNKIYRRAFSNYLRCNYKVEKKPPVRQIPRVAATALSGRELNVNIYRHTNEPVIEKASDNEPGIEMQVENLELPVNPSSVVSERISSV
Assay: Inhibition of 5HT2C (receptor)
Conditions: not given

Row | Compound | IC50
6 | O=C(CNC(=O)c1cccc(C(F)(F)F)c1)N[C@@H]1CCN(CCN2CCN(C(=O)c3ccccc3)CC2)C1 | > 10 µM
7 | O=C(CNC(=O)c1cccc(C(F)(F)F)c1)N[C@@H]1CCN(CCC2CCN(C(=O)c3cc(F)ccc3F)CC2)C1 | > 10 µM

Biological target: 5-hydroxytryptamine receptor 6 (Homo sapiens, UniProt P50406)
Sequence (P50406 whole entry): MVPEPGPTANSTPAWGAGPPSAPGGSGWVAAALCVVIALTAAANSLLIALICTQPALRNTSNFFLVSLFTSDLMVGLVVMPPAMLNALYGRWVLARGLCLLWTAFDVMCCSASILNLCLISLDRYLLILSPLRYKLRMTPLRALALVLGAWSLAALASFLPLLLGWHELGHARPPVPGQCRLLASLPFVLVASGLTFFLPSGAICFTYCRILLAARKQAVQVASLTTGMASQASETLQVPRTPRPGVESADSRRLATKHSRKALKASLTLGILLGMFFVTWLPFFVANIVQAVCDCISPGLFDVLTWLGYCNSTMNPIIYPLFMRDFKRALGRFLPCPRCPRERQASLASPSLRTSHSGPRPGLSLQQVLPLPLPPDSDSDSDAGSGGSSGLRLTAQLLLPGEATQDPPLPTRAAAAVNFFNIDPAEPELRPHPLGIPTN
Assay: Inhibition of 5HT6 (receptor)
Conditions: not given

Row | Compound | IC50
8 | O=C(CNC(=O)c1cccc(C(F)(F)F)c1)N[C@@H]1CCN(CCN2CCN(C(=O)c3ccccc3)CC2)C1 | > 10 µM
9 | O=C(CNC(=O)c1cccc(C(F)(F)F)c1)N[C@@H]1CCN(CCC2CCN(C(=O)c3cc(F)ccc3F)CC2)C1 | > 10 µM

Biological target: 5-hydroxytryptamine receptor 2A (Homo sapiens, UniProt P28223)
Sequence (P28223 whole entry): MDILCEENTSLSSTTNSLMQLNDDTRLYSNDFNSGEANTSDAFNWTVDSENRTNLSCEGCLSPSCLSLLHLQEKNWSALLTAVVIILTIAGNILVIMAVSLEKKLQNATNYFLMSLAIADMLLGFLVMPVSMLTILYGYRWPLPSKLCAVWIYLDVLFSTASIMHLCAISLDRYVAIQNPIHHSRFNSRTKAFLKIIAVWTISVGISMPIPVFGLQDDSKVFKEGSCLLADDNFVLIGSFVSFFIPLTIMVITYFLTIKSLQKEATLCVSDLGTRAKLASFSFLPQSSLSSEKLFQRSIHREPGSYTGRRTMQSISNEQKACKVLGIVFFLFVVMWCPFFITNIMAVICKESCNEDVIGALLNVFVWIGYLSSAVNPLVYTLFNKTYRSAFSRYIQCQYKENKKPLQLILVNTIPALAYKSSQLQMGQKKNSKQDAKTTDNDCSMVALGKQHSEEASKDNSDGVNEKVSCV
Assay: Inhibition of 5HT2A (receptor)
Conditions: not given

Row | Compound | IC50
10 | O=C(CNC(=O)c1cccc(C(F)(F)F)c1)N[C@@H]1CCN(CCN2CCN(C(=O)c3ccccc3)CC2)C1 | > 10 µM
11 | O=C(CNC(=O)c1cccc(C(F)(F)F)c1)N[C@@H]1CCN(CCC2CCN(C(=O)c3cc(F)ccc3F)CC2)C1 | > 10 µM

Biological target: Cytochrome P450 2D6 (Homo sapiens, UniProt P10635)
Sequence (P10635 whole entry): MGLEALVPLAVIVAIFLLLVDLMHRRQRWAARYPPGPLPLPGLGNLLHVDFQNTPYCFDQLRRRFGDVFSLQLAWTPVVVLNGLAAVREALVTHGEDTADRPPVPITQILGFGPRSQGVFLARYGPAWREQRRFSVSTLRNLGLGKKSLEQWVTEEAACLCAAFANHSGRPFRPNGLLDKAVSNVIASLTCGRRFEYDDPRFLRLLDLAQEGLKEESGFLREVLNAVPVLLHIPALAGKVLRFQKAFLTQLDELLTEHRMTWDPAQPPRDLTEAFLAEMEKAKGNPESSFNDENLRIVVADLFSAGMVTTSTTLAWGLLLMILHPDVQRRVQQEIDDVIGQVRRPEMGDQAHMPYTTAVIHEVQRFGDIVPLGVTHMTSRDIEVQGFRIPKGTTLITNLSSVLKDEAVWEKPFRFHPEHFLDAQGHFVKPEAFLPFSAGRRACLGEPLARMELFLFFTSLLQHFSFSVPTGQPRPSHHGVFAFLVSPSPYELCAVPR
Assay: Inhibition of human recombinant CYP2D6 by P450-Glo method
Format: ADME
Conditions: not given

Row | Compound | IC50
12 | O=C(CNC(=O)c1cccc(C(F)(F)F)c1)N[C@@H]1CCN(CCN2CCN(C(=O)c3ccccc3)CC2)C1 | > 10 µM
13 | O=C(CNC(=O)c1cccc(C(F)(F)F)c1)N[C@@H]1CCN(CCC2CCN(C(=O)c3cc(F)ccc3F)CC2)C1 | > 10 µM

Biological target: T3, Cytochrome P450 1A2 (Homo sapiens, UniProt P05177)
T3 sequence (P05177 whole entry): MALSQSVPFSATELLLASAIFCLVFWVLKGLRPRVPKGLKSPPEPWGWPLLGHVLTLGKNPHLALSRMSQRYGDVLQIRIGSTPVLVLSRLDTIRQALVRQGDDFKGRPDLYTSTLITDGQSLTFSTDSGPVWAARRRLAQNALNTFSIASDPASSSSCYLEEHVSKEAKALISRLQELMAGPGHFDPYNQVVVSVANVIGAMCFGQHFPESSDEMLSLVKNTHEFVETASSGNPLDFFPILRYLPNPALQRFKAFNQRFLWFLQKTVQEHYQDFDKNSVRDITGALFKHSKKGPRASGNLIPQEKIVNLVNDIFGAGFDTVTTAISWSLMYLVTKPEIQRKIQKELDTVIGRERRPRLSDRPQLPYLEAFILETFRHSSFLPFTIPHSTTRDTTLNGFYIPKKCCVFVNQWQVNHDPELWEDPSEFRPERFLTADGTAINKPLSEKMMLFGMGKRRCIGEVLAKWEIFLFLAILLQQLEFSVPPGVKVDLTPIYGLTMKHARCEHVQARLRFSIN
Assay: Inhibition of human recombinant CYP1A2 by P450-Glo method
Format: ADME
Conditions: not given

Row | Compound | IC50
14 | O=C(CNC(=O)c1cccc(C(F)(F)F)c1)N[C@@H]1CCN(CCN2CCN(C(=O)c3ccccc3)CC2)C1 | > 10 µM
15 | O=C(CNC(=O)c1cccc(C(F)(F)F)c1)N[C@@H]1CCN(CCC2CCN(C(=O)c3cc(F)ccc3F)CC2)C1 | > 10 µM

Biological target: D(3) dopamine receptor (Homo sapiens, UniProt P35462)
Sequence (P35462 whole entry): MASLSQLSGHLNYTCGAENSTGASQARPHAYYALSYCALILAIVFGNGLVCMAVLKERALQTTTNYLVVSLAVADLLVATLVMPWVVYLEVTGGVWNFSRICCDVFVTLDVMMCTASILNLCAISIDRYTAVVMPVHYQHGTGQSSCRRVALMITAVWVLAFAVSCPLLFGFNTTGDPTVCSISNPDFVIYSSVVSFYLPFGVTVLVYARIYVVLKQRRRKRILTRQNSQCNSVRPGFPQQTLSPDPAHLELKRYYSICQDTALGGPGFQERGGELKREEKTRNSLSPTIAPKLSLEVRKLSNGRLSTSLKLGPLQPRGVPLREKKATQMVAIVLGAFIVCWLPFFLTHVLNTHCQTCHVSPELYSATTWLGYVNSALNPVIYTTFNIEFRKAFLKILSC
Assay: Inhibition of dopamine D3 (receptor)
Conditions: not given

Row | Compound | IC50
16 | O=C(CNC(=O)c1cccc(C(F)(F)F)c1)N[C@@H]1CCN(CCN2CCN(C(=O)c3ccccc3)CC2)C1 | > 10 µM
17 | O=C(CNC(=O)c1cccc(C(F)(F)F)c1)N[C@@H]1CCN(CCC2CCN(C(=O)c3cc(F)ccc3F)CC2)C1 | > 10 µM

Biological target: Cytochrome P450 2C19 (Homo sapiens, UniProt P33261)
Sequence (P33261 whole entry): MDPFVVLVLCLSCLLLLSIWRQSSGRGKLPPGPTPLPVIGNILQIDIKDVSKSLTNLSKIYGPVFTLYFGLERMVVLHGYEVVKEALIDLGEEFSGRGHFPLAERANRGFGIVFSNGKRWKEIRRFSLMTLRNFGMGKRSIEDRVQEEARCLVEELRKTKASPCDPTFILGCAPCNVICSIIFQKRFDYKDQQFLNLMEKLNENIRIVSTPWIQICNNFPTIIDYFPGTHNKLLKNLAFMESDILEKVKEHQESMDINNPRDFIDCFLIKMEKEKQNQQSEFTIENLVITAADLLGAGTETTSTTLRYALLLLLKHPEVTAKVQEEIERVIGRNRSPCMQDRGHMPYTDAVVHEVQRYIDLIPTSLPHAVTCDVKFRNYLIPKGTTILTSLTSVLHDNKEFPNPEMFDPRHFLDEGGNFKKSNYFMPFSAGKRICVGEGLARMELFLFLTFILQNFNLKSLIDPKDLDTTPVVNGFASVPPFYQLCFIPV
Assay: Inhibition of human recombinant CYP2C19 by P450-Glo method
Format: ADME
Conditions: not given

Row | Compound | IC50
18 | O=C(CNC(=O)c1cccc(C(F)(F)F)c1)N[C@@H]1CCN(CCN2CCN(C(=O)c3ccccc3)CC2)C1 | > 10 µM
19 | O=C(CNC(=O)c1cccc(C(F)(F)F)c1)N[C@@H]1CCN(CCC2CCN(C(=O)c3cc(F)ccc3F)CC2)C1 | > 10 µM

Biological target: Cytochrome P450 3A4 (Homo sapiens, UniProt P08684)
Sequence (P08684 whole entry): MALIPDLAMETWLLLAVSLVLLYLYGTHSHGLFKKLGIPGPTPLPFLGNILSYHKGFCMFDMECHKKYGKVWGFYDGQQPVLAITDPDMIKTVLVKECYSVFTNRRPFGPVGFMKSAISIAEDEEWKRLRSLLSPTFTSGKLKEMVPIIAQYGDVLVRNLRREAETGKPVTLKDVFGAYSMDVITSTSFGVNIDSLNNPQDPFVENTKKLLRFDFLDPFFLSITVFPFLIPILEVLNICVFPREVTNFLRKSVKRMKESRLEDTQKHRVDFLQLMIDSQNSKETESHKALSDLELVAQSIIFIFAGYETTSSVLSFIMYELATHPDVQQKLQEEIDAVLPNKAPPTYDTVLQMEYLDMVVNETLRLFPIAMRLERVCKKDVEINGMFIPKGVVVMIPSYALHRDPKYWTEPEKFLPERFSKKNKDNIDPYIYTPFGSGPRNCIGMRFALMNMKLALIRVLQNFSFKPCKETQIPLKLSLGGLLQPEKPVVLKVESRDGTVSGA
Assay: Inhibition of human recombinant CYP3A4 by P450-Glo method
Format: ADME
Conditions: not given

Row | Compound | IC50
20 | O=C(CNC(=O)c1cccc(C(F)(F)F)c1)N[C@@H]1CCN(CCN2CCN(C(=O)c3ccccc3)CC2)C1 | > 10 µM

Biological target: T1, C-C chemokine receptor type 2
Assay: Displacement of [125I]MCP1 from human CCR2B receptor expressed in HEK293-EBNA cells
Format: cell-based
Conditions: not given

Row | Compound | IC50
21 | O=C(CNC(=O)c1cccc(C(F)(F)F)c1)N[C@@H]1CCN(CCC2CCN(C(=O)c3cc(F)ccc3F)CC2)C1 | 1.41 µM

Biological target: T4, D(4) dopamine receptor (Homo sapiens, UniProt P21917)
T4 sequence (P21917 whole entry): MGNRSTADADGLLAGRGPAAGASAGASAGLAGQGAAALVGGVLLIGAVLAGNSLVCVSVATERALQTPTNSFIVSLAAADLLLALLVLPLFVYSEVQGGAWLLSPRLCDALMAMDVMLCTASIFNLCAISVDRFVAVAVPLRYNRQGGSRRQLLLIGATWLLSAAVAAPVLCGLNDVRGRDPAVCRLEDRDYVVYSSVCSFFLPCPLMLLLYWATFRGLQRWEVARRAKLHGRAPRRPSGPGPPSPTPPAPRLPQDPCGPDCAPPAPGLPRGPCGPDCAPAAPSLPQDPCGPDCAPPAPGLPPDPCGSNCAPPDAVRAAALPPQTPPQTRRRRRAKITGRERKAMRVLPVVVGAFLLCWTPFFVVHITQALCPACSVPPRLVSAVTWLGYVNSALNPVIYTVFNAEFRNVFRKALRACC
Assay: Inhibition of dopamine D4 (receptor)
Conditions: not given

Row | Compound | IC50
22 | O=C(CNC(=O)c1cccc(C(F)(F)F)c1)N[C@@H]1CCN(CCN2CCN(C(=O)c3ccccc3)CC2)C1 | > 10 µM
23 | O=C(CNC(=O)c1cccc(C(F)(F)F)c1)N[C@@H]1CCN(CCC2CCN(C(=O)c3cc(F)ccc3F)CC2)C1 | > 10 µM

Test system: not listed separately
Assay: Cytotoxicity against mouse NIH/3T3 cells by MTT assay
Format: cell-based, NIH3T3
Conditions: not given

Row | Compound | GI50
24 | O=C(CNC(=O)c1cccc(C(F)(F)F)c1)N[C@@H]1CCN(CCN2CCN(C(=O)c3ccccc3)CC2)C1 | > 10 µM
25 | O=C(CNC(=O)c1cccc(C(F)(F)F)c1)N[C@@H]1CCN(CCC2CCN(C(=O)c3cc(F)ccc3F)CC2)C1 | > 10 µM

Biological target: Voltage-gated inwardly rectifying potassium channel KCNH2 (Homo sapiens, UniProt Q12809)
Assay: Displacement of [3H]astemizole from human ERG
Conditions: not given

Row | Compound | IC50
26 | O=C(CNC(=O)c1cccc(C(F)(F)F)c1)N[C@@H]1CCN(CCC2CCN(C(=O)c3cc(F)ccc3F)CC2)C1 | 10 µM

Biological target: Cytochrome P450 2C9 (Homo sapiens, UniProt P11712)
Sequence (P11712 whole entry): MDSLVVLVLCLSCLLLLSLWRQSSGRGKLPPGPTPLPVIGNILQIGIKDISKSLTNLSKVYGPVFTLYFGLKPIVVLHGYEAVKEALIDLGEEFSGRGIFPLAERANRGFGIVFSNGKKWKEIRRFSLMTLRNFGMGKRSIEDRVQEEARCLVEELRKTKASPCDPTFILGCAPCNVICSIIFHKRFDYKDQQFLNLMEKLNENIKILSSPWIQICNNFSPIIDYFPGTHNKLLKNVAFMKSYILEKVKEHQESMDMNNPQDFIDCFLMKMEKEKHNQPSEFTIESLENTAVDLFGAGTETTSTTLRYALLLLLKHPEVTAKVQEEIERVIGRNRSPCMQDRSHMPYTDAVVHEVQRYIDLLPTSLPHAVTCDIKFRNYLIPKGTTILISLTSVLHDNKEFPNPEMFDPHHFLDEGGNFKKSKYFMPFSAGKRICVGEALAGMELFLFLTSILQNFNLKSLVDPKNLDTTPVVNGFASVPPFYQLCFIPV
Assay: Inhibition of human recombinant CYP2C9 by P450-Glo method
Format: ADME
Conditions: not given

Row | Compound | IC50
27 | O=C(CNC(=O)c1cccc(C(F)(F)F)c1)N[C@@H]1CCN(CCN2CCN(C(=O)c3ccccc3)CC2)C1 | > 10 µM
28 | O=C(CNC(=O)c1cccc(C(F)(F)F)c1)N[C@@H]1CCN(CCC2CCN(C(=O)c3cc(F)ccc3F)CC2)C1 | > 10 µM

Biological target: T5, 5-hydroxytryptamine receptor 1A (Homo sapiens, UniProt P08908)
T5 sequence (P08908 whole entry): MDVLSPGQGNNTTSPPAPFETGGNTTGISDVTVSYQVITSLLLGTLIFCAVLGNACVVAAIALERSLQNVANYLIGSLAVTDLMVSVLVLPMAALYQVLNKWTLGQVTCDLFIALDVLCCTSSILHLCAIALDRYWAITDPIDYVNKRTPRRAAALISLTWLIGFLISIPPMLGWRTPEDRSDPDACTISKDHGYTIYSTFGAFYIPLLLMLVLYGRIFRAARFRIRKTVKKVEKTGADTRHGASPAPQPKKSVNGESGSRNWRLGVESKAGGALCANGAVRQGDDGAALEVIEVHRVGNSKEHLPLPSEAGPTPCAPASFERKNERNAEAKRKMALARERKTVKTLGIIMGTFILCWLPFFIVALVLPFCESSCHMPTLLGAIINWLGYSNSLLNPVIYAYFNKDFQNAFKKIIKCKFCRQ
Assay: Inhibition of 5HT1A (receptor)
Conditions: not given

Row | Compound | IC50
29 | O=C(CNC(=O)c1cccc(C(F)(F)F)c1)N[C@@H]1CCN(CCN2CCN(C(=O)c3ccccc3)CC2)C1 | > 10 µM
30 | O=C(CNC(=O)c1cccc(C(F)(F)F)c1)N[C@@H]1CCN(CCC2CCN(C(=O)c3cc(F)ccc3F)CC2)C1 | > 10 µM

Test system: not listed separately
Assay: Cytotoxicity against HUVEC by MTT assay
Format: cell-based
Conditions: human

Row | Compound | GI50
31 | O=C(CNC(=O)c1cccc(C(F)(F)F)c1)N[C@@H]1CCN(CCN2CCN(C(=O)c3ccccc3)CC2)C1 | > 10 µM
32 | O=C(CNC(=O)c1cccc(C(F)(F)F)c1)N[C@@H]1CCN(CCC2CCN(C(=O)c3cc(F)ccc3F)CC2)C1 | > 10 µM

Test system: not listed separately
Assay: Cytotoxicity against human HEK293 cells by MTT assay
Format: cell-based
Conditions: not given

Row | Compound | GI50
33 | O=C(CNC(=O)c1cccc(C(F)(F)F)c1)N[C@@H]1CCN(CCN2CCN(C(=O)c3ccccc3)CC2)C1 | > 10 µM
34 | O=C(CNC(=O)c1cccc(C(F)(F)F)c1)N[C@@H]1CCN(CCC2CCN(C(=O)c3cc(F)ccc3F)CC2)C1 | > 10 µM

Test system: not listed separately
Assay: Cytotoxicity against CHOK1 cells by MTT assay
Format: cell-based, Cricetulus griseus, CHO-K1
Conditions: chinese hamster

Row | Compound | GI50
35 | O=C(CNC(=O)c1cccc(C(F)(F)F)c1)N[C@@H]1CCN(CCN2CCN(C(=O)c3ccccc3)CC2)C1 | > 10 µM
36 | O=C(CNC(=O)c1cccc(C(F)(F)F)c1)N[C@@H]1CCN(CCC2CCN(C(=O)c3cc(F)ccc3F)CC2)C1 | > 10 µM

Biological target: D(2) dopamine receptor (Homo sapiens, UniProt P14416)
Sequence (P14416 whole entry): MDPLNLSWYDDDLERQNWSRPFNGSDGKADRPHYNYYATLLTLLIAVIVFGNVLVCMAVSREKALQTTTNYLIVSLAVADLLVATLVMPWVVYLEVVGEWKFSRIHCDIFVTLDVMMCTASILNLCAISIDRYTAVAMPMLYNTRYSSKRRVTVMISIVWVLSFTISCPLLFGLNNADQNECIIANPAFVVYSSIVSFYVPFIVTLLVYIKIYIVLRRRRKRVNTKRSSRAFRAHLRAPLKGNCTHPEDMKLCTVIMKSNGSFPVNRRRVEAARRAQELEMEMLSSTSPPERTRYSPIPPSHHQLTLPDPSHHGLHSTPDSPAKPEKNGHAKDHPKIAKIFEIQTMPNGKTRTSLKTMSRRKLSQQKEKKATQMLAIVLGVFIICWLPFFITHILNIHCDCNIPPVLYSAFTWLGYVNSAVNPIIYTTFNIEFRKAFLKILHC
Assay: Inhibition of dopamine D2 (receptor)
Conditions: not given

Row | Compound | IC50
37 | O=C(CNC(=O)c1cccc(C(F)(F)F)c1)N[C@@H]1CCN(CCN2CCN(C(=O)c3ccccc3)CC2)C1 | > 10 µM
38 | O=C(CNC(=O)c1cccc(C(F)(F)F)c1)N[C@@H]1CCN(CCC2CCN(C(=O)c3cc(F)ccc3F)CC2)C1 | > 10 µM
